{"source": "patent US20240238378A1", "about": "“METHODS AND CCK-B RECEPTOR AGONISTS FOR TREATING TINNITUS” (City University of Hong Kong, priority 2023, published 2024)", "key": {"[1]": {"system": "noise-induced tinnitus mice", "assay": "Tinnitus mouse model, gap pre-pulse inhibition of the acoustic startle reflex (GPIAS) with sound therapy", "assay_type": "in vivo", "conditions": "0.2 mg/kg intraperitoneal, one week (4 treatment days), combined with sound exposure; 12.6k, 16k, 20.1k, 28.7k Hz; FIGS. 6F-6I", "protocol": "HT-267 is tested in the tinnitus mouse model. […] 7-9 weeks after tinnitus induction, more than 50% of mice developed tinnitus.\nThe inventors use the standard approach for assessing tinnitus in a rodent model, namely gap pre-pulse inhibition of the acoustic startle reflex (GPIAS) (FIGS. 2A-B). […] (Upper) Background sound and startle speakers are placed 10 and 13 cm respectively, from the point of microphone calibration. Signals from three force sensors placed under the testing tube in a triangular formation are averaged in a custom-made circuit and transmitted to TDT digital signal processor (DSP) for further analysis. (Lower) Timeline of a single GPIAS testing session. A GPIAS testing session consists of 3 blocks, lasting 36 minutes in total. The first block is the acclimation phase, lasting five minutes, where white noise is played from the “Cue” speaker for 5 minutes. Block two is the startle acclimation phase. To prevent outlier trials at the beginning of the testing session, 10 startle-only trials without any background sound are delivered to the animal. After block two, block three takes place, lasting 30 minutes. The 30 minute-long GPIAS session consisting of 300 individual trials (Five different background (BG) frequencies tested, for both GAP and NO_GAP conditions with 30 repeats for each BG frequency×GAP/NO_GAP condition pair). Each square represents one minute in the timeline. […]"}, "CCKBR": {"target": "T1, CCKBR (Homo sapiens, UniProt P32239)", "T1 construct": "expressed in transfected cells; host or cells: CHO cells (CHO-CCKBR)", "T1 sequence (P32239 1-447)": "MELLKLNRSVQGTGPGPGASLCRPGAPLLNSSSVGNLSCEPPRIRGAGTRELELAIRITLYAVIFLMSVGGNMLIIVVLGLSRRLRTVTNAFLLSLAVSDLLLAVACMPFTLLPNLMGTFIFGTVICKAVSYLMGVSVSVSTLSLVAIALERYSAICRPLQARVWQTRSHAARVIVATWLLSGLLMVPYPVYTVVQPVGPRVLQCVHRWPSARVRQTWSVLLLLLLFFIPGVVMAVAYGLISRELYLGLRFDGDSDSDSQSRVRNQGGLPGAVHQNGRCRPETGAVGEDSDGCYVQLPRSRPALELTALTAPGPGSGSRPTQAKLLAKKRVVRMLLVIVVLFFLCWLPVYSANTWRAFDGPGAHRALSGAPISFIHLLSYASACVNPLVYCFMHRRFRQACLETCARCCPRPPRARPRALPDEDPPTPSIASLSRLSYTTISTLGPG", "assay": "Calcium response (Fluo-8 No Wash Calcium Assay Kit) in GPCR-overexpressing CHO cells", "assay_type": "cell-based", "protocol": "In vitro screening system, HT-267 have been tested and measured calcium response by Fluo-8 No Wash Calcium Assay Kit in GPCRs overexpressed CHO cells, including CHO-CCKBR, CHO-CCKAR, CHO-HTR2B cells. These tests and measurements are performed as described in CN 113929737 A by Tortorella, et al., assigned to Regenerative Medicine and Health Innovation Centre Co., Ltd., et al., published on Jan. 14, 2022."}, "[2]": {"system": "auditory thalamocortical pathway", "assay": "HFS-induced thalamocortical LTP in CCK-KO mice with infusion into ACx (fEPSP slope)", "assay_type": "in vivo", "conditions": "HT-267 5 μM, 0.5 μl into ACx, n=6, p<0.0001, FIG. 5C", "source_text": "The electrical stimulation is generated by an ISO-Flex isolator (A.M.P.I., Israel), which is controlled by a multifunction processor (RX6, TDT). The electrical current pulses for baseline test are 0.5 ms, 50-150 μA and presented every 10 s. The theta burst stimulation (TBS) contains four trails of 10 bursts at 5 Hz with the interval of 10 s between the trails, and each burst consists of 5 pulses at 100 Hz.\n[…], two customized microelectrode arrays with four tungsten electrodes each, impedance: 0.5-1 MS2 (recording), and 200-500 kΩ (ES) (FHC, U.S.), are used for the auditory cortical neuronal activity recording and medial geniculate body ventral division (MGv) electrical stimulation and monitoring, respectively. […] 70 dB, 100 ms, noise bursts are presented every 10 s during the insertion of the electrode arrays, and neuronal activities are monitored as the electrode arrays are lowered until robust noise responses are achieved on both arrays. The final stimulating and recording positions are determined by maximizing the cortical field excitatory postsynaptic potential (fEPSP) amplitude triggered by the electrical stimulation in MGv.\nThe fEPSPs, which are elicited by 0.5 ms electrical current pulses, are amplified (×1000) and filtered (1 Hz-5 kHz), recorded with a 25 kHz sampling rate, and stored in a PC by OpenEx software (TDT). Before the recording, an input-output function is measured. […]"}, "[3]": {"system": "auditory thalamocortical pathway", "assay": "Thalamocortical LTP induction by CCK injection in the auditory cortex with low-frequency stimulation of MGv (fEPSP slope)", "assay_type": "in vivo", "conditions": "CCK 1 μM, 1 μl into ACx, n=8, p<0.001, FIG. 3E"}, "[4]": {"conditions": "elimination half-life (t1/2) in plasma"}}, "data": [{"compound": "CSCC[C@H](NC(=O)C(N)Cc1c[nH]c2ccccc12)C(=O)NC(CC(=O)O)C(=O)N[C@@H](Cc1ccccc1)C(N)=O", "note": "(some centres unmarked) [CCK-4, Cholecystokinin-4, reference compound]", "values": [{"measurement": "half-life", "setting": "in vivo; [4]", "result": "~13", "unit": "min"}]}, {"compound": "CSCCC(NC(=O)[C@H](N)Cc1c[nH]c2ccccc12)C(=O)N[C@@H](CC(=O)O)C(=O)N[C@@H](Cc1cccc(Br)c1)C(N)=O", "note": "(some centres unmarked) [HT-267]", "values": [{"measurement": "change of GPIAS ratio pre- vs post-treatment", "setting": "[1]", "result": "significantly reduces"}, {"measurement": "Tmax", "setting": "in vivo", "result": "~1.98", "unit": "min"}, {"measurement": "blood-brain barrier passage", "setting": "in vivo", "result": "passes BBB easily"}, {"measurement": "uptake rate of brain", "setting": "in vivo", "result": "about 21.89%"}, {"measurement": "half-life", "setting": "in vivo; [4]", "result": "~105", "unit": "min"}, {"measurement": "half-life", "setting": "in vivo; t1/2 in brain", "result": "~522", "unit": "min"}, {"measurement": "EC50", "setting": "CCKBR; CHO-CCKBR cells", "result": "~0.05", "unit": "nM"}, {"measurement": "receptor specificity of calcium response", "setting": "CCKBR; CHO-CCKBR vs CHO-CCKAR and CHO-HTR2B cells, FIG. 1", "result": "specifically activates CCKBR"}, {"measurement": "rescue of HFS-induced thalamocortical LTP (normalized fEPSP slope)", "setting": "[2]", "result": "abolished LTP could be rescued"}]}, {"compound": "cholecystokinin [CCK]", "values": [{"measurement": "normalized fEPSP slope after injection and LFS", "setting": "[3]", "result": "lead to an enhancement in fEPSP"}]}]}
